{
  "source": "patent US9157102B2",
  "about": "“Over-expression of NADH-dependent oxidoreductase (fucO) for increasing furfural or 5-hydroxymethylfurfural tolerance” (UNIVERSITY OF FLORIDA RESEARCH FOUNDATION, INCORPORATED, priority 2011, dated 2015)",
  "molecules": {"B1": {"name": "FucO (Escherichia coli K-12) (protein)", "chain": "MANRMILNETAWFGRGAVGALTDEVKRRGYQKALIVTDKTLVQCGVVAKVTDKMDAAGLAWAIYDGVVPNPTITVVKEGLGVFQNSGADYLIAIGGGSPQDTCKAIGIISNNPEFADVRSLEGLSPTNKPSVPILAIPTTAGTAAEVTINYVITDEEKRRKFVCVDPHDIPQVAFIDADMMDGMPPALKAATGVDALTHAIEGYITRGAWALTDALHIKAIEIIAGALRGSVAGDKDAGEEMALGQYVAGMGFSNVGLGLVHGMAHPLGAFYNTPHGVANAILLPHVMRYNADFTGEKYRDIARVMGVKVEGMSLEEARNAAVEAVFALNRDVGIPPHLRDVGVRKEDIPALAQAALDDVCTGGNPREATLEDIVELYHTAW", "notes": "The FucO coding region was cloned into pET15b to produce pLOI4322; made in house; host or cells: E. coli BL21(λDE3) carrying pLOI4322"}},
  "key": {"[1]": {"target": "T1, FucO (Escherichia coli, UniProt P0A9S1)", "T1 construct": "The FucO coding region was cloned into pET15b to produce pLOI4322; made in house; host or cells: E. coli BL21(λDE3) carrying pLOI4322", "T1 sequence (P0A9S1 1-382)": "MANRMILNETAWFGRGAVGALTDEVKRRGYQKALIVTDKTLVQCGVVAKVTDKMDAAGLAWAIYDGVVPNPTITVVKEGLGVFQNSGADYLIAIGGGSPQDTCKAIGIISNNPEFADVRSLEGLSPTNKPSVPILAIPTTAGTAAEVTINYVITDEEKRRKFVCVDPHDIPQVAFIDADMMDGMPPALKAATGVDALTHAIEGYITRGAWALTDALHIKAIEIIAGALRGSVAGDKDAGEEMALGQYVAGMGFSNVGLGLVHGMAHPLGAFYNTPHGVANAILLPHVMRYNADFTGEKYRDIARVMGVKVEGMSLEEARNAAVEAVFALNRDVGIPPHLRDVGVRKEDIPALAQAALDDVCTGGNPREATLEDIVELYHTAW", "assay": "NADH-/NADPH-dependent furan reduction by purified his-tagged FucO", "type": "biochemical", "conditions": "for NADPH-dependent reductase activity: purified enzyme, NADPH as cofactor", "protocol": "(§1) Cultures were grown overnight to a cell density of approximately 0.66 mg dew ml^−1 (37° C.) in closed tubes containing 20 ml AM1 (50 g liter^−1 xylose, 0.1 mM IPTG and 12.5 mg liter^−1 ampicillin). Cells were harvested by centrifugation (7,000 g for 5 min, 4° C.), washed twice with 10 ml of cold sodium phosphate buffer (50 mM pH 7.0), resuspended to a cell density of 4.4 mg dew ml^−1, and disrupted in buffer containing 1 mM dithiothreitol using a Fastprep-24 (MP Biomedicals, Solon, Ohio). After clarification at 13,000 g (10 min, 4° C.), protein concentration was determined using a BCA™ Protein Assay Kit (Thermo Scientific, Rockford, Ill.). Furfural-dependent reduction was measured using NADH and NADPH by monitoring the decrease in absorbance at 340 nm (extinction coefficient of NADH of 6,220 M^−1 cm^−1; extinction coefficient of NADPH of […]). Reaction mixtures contained 200 mM phosphate buffer (pH 7.0), 10 mM furfural, and 0.2 mM NADH or NADPH. NADH-dependent and NADPH-dependent reduction of 5-HMF (10 mM) was measured in a similar fashion.\n(§2) For the purification of his-tagged FucO, BL21(pLOI4322) was grown in Luria broth at 37° C. When the culture density reached 0.35 g dew liter^−1, IPTG (0.1 mM) was added to induce overexpression. After incubation for 4 h, cells were harvested (7,000 g for 5 min, 4° C.), washed once with 10 mM Tris-HCl (pH 7.1), and lysed using a French pressure cell. After clarification at 30,000 g (1 h, 4° C.), crude extracts were passed through a 0.22 μm polyvinylidene fluoride (PVDF) filter, and further purified using a 1-ml HiTrap™ nickel column (GE Healthcare, Piscataway, N.J.). Purified enzyme was dialyzed in 100 mM phosphate buffer using a Thermo Slide-A-Lyzer and quantified using the BCA™ Protein Assay Kit (Thermo Scientific, Rockford, Ill.)."}, "[2]": {"system": "LY180(pTrc99A)", "assay": "Furfural toxicity in tube cultures, vector control", "type": "cell-based", "conditions": "Escherichia coli, 48 h, read-out: minimum inhibitory concentration", "protocol": "(§3) Furfural toxicity was measured in tube cultures (13 mm by 100 mm) containing 4 ml of AM1 medium with 50 g xylose, 12.5 mg liter^−1 ampicillin, furfural, and other supplements as indicated (28, 29). Cultures were inoculated to an initial density of […] (0.1 mM) was included for fucO induction. Cell mass was measured at 550 nm after incubation for 48 h (37° C.)."}, "[3]": {"system": "LY180(pLOI4319)", "assay": "Furfural toxicity in tube cultures, IPTG-induced fucO", "type": "cell-based", "conditions": "Escherichia coli; AM1 medium, xylose, 48 h, 37° C., 0.1 mM IPTG-induced fucO; read-out: minimum inhibitory concentration", "protocol": "as §3"}, "[4]": {"target": "YqhD (Escherichia coli, UniProt Q46856)", "sequence (Q46856 whole entry)": "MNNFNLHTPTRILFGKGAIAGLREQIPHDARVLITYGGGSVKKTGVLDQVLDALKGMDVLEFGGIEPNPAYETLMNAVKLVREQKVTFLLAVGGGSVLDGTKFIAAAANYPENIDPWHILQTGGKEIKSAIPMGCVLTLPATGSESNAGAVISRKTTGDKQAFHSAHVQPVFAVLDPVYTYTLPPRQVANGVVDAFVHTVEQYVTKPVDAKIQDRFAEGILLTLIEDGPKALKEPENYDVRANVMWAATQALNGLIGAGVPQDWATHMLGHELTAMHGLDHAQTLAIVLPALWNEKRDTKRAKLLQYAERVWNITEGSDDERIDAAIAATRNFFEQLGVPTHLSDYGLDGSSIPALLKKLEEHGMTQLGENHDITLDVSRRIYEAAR", "conditions": "cited from earlier work"}, "[5]": {"target": "T1, FucO", "conditions": "native substrate, reference (6); cited from earlier work"}, "[6]": {"substrate": "O=Cc1ccc(CO)o1", "assay": "NADH-/NADPH-dependent furan reduction by purified his-tagged FucO", "type": "biochemical, Escherichia coli", "conditions": "other: substrate of purified his-tagged FucO, NADH-specific reduction; 37.0 °C", "protocol": "as §1, §2"}, "[7]": {"substrate": "O=Cc1ccco1", "assay": "NADH-/NADPH-dependent furan reduction by purified his-tagged FucO", "type": "biochemical, Escherichia coli", "conditions": "other: substrate of purified his-tagged FucO, NADH-specific reduction; 37.0 °C", "protocol": "as §1, §2"}},
  "note": "Like-named read-outs stand apart in the source and are kept apart here.",
  "data": [
    {"molecule": "O=Cc1ccco1", "note": "[furfural]", "values": [
      {"measurement": "Vmax relative to that for L-lactaldehyde", "setting": "[1]; FucO", "value": 10, "unit": "%"},
      {"measurement": "NADPH-dependent reductase activity", "setting": "[1]", "value": "No NADPH-dependent furfural or 5-HMF reductase activity"},
      {"measurement": "MIC", "setting": "[2]", "value": 10, "unit": "mM"},
      {"measurement": "MIC", "setting": "[3]", "value": 15, "unit": "mM"},
      {"measurement": "Km", "setting": "[4]; reference (29), read-out: Km for furfural", "value": 9, "unit": "mM"}
    ]},
    {"molecule": "NC(=O)C1=CN([C@@H]2O[C@H](COP(=O)(O)OP(=O)(O)OC[C@H]3O[C@@H](n4cnc5c(N)ncnc54)[C@H](OP(=O)(O)O)[C@@H]3O)[C@@H](O)[C@H]2O)C=CC1", "note": "[NADPH]", "values": [
      {"measurement": "Km", "setting": "[4]; read-out: Km for NADPH", "value": 0.008, "unit": "mM"}
    ]},
    {"molecule": "O=Cc1ccc(CO)o1", "note": "[5-HMF, 5-hydroxymethylfurfural]", "values": [
      {"measurement": "NADPH-dependent reductase activity", "setting": "[1]", "value": "No NADPH-dependent furfural or 5-HMF reductase activity"}
    ]},
    {"molecule": "C[C@H](O)C=O", "note": "[L-lactaldehyde]", "values": [
      {"measurement": "Km", "setting": "[5]", "value": 0.035, "unit": "mM"},
      {"measurement": "Vmax", "setting": "[5]", "value": 20, "unit": "μmol min^−1 mg protein^−1"}
    ]},
    {"molecule": "B1", "values": [
      {"measurement": "Km", "setting": "[6]", "value": "0.7 ± 0.3", "unit": "mM"},
      {"measurement": "Vmax", "setting": "[6]", "value": "0.30±0.05", "unit": "mmol min^−1 mg protein^−1"},
      {"measurement": "Km", "setting": "[7]", "value": "0.4 ± 0.2", "unit": "mM"},
      {"measurement": "Vmax", "setting": "[7]", "value": "1.9±0.4", "unit": "mmol min^−1 mg protein^−1"}
    ]}
  ]
}
